Results: ChEMBL document CHEMBL1201862, “PubChem BioAssay data set” (2004)
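Briefly, cells in 96-well plates were exposed to five compound concentrations for 48 h, and endpoints were estimated by linear interpolation. GI50 marks 50% less growth.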 Calls of active or inactive are those of the source. No stated cut-off is given here; in the data, active = GI50 up to about 1.1 µM and inactive = higher.

Key:
Assay in all cases: NCI tumour cell line growth inhibition, 48 h
[1] = tested on: Malme-3M
[2] = tested on: SK-OV-3
[3] = tested on: CCRF-CEM
[4] = tested on: EKVX
[5] = tested on: RXF 393
[6] = tested on: NCI-H460
[7] = tested on: M19-MEL
[8] = tested on: KM12
[9] = tested on: OVCAR-3
[10] = tested on: HL-60
[11] = tested on: SF-295
[12] = tested on: SF-539
[13] = tested on: SW-620
[14] = tested on: SNB-78
[15] = tested on: HCT-116
[16] = tested on: LXFL 529
[17] = tested on: HCC 2998
[18] = tested on: NCI-H23
[19] = tested on: OVCAR-8
[20] = tested on: NCI-H522
[21] = tested on: LOX IMVI
[22] = tested on: K562
[23] = tested on: U-251
[24] = tested on: SNB-19
[25] = tested on: UACC-62
[26] = tested on: UACC-257
[27] = tested on: KM-20L2
[28] = tested on: ACHN
[29] = tested on: COLO 205
[30] = tested on: 786-0
[31] = tested on: UO-31
[32] = tested on: RPMI-8226
[33] = tested on: SR
[34] = tested on: SF-268
[35] = tested on: A549
[36] = tested on: TK-10
[37] = tested on: SN12C
[38] = tested on: DMS-273
[39] = tested on: SNB-75
[40] = tested on: DLD-1
[41] = tested on: MOLT-4
[42] = tested on: SK-MEL-28
[43] = tested on: HOP-62
[44] = tested on: M14
[45] = tested on: HCT-15
[46] = tested on: IGROV-1
[47] = tested on: SK-MEL-2
[48] = tested on: HOP-92
[49] = tested on: A498
[50] = tested on: DMS-114
[51] = tested on: HT-29
[52] = tested on: OVCAR-5
[53] = tested on: OVCAR-4
[54] = tested on: CAKI-1
[55] = tested on: SK-MEL-5
[56] = tested on: NCI-H226
[57] = tested on: PC-3
[58] = tested on: DU-145
[59] = tested on: MDA-MB-231
[60] = tested on: NCI/ADR-RES
[61] = tested on: T47D
[62] = tested on: Hs-578T
[63] = tested on: MDA-MB-435
[64] = tested on: MDA-N
[65] = tested on: MCF7
[66] = tested on: BT-549

Measured: GI50

C[C@]12CC[C@@H]3c4ccccc4CC[C@H]3[C@@H]1CC[C@@H]2O
inactive: [1] 44.2 µM | [2] > 100 µM | [3] 62.5 µM | [4] 80.5 µM | [5] 27.6 µM | [6] 38.5 µM | [7] 78 µM | [8] 68.7 µM | [9] > 100 µM | [10] > 10 µM | [11] > 100 µM | [12] 43.1 µM | [13] > 100 µM | [14] > 100 µM | [15] > 100 µM | [16] > 100 µM | [17] 61.7 µM | [18] > 100 µM | [19] > 100 µM | [20] 49.2 µM | [21] 77.4 µM | [22] 32.1 µM | [23] > 100 µM | [24] > 100 µM | [25] 42.6 µM | [26] > 100 µM | [27] 33.8 µM | [28] > 100 µM | [29] 73.8 µM | [30] > 100 µM | [31] 39.7 µM | [32] 53.2 µM | [33] 56.1 µM | [34] > 100 µM | [35] 99.3 µM | [36] > 100 µM | [37] 83 µM | [38] 51.1 µM | [39] 54.7 µM | [40] 72.6 µM | [41] 45.5 µM | [42] > 100 µM | [43] > 100 µM | [44] > 100 µM | [46] > 100 µM
50.2 µM: [45]

COc1ccc2c(c1)CC[C@@H]1C2CC[C@]2(C)C(=O)N(CCN3CCCC3)C(=O)CC12 (some centres not stated)
inactive: [1] 17 µM | [2] 66.7 µM | [5] 34 µM | [6] 36.6 µM | [7] 18.2 µM | [8] 29.4 µM | [9] 27.5 µM | [47] 17.8 µM | [48] 17.8 µM | [10] 18.7 µM | [11] 19.1 µM | [49] 27.9 µM | [14] 31.4 µM | [16] 26.4 µM | [18] 49.7 µM | [20] 23.1 µM | [22] 20.4 µM | [23] 43.9 µM | [24] > 100 µM | [25] 18.2 µM | [26] 18.5 µM | [27] 21.4 µM | [28] 59.3 µM | [29] 17.7 µM | [30] 18.3 µM | [31] 17.9 µM | [50] 26.5 µM | [32] 15.3 µM | [33] 31 µM | [51] 17.4 µM | [52] 26.1 µM | [34] 35.1 µM | [39] 15.1 µM | [41] 17.3 µM | [42] 19.5 µM | [43] 28.3 µM | [44] 15.8 µM | [46] 44.7 µM | [53] 84.3 µM

O=C(/C=C/CC(O)(c1ccccc1)c1ccccc1)Nc1ccccc1Cl
> 100 µM: [45]
inactive: [1] 45.3 µM | [2] > 100 µM | [3] > 100 µM | [4] > 100 µM | [6] > 100 µM | [7] > 100 µM | [8] > 100 µM | [9] > 100 µM | [47] > 100 µM | [48] > 100 µM | [10] > 100 µM | [11] > 100 µM | [49] > 100 µM | [13] > 100 µM | [54] > 100 µM | [15] > 100 µM | [16] > 100 µM | [17] > 100 µM | [18] > 100 µM | [19] > 100 µM | [20] > 100 µM | [22] > 100 µM | [23] > 100 µM | [24] > 100 µM | [25] > 100 µM | [26] > 100 µM | [27] > 100 µM | [28] > 100 µM | [55] > 100 µM | [29] > 100 µM | [31] > 100 µM | [50] > 100 µM | [32] > 100 µM | [56] > 100 µM | [33] > 100 µM | [51] > 100 µM | [52] > 100 µM | [34] > 100 µM | [36] > 100 µM | [37] > 100 µM | [39] 28.1 µM | [40] > 100 µM | [41] > 100 µM | [42] > 100 µM | [43] > 100 µM | [44] > 100 µM | [53] > 100 µM

Cc1cc(CN(Cc2ccccc2)Cc2nc3ccccc3[nH]2)c(O)c(CN(Cc2nc3ccccc3[nH]2)Cc2nc3ccccc3[nH]2)c1
inactive: [57] 12.4 µM | [58] 23.4 µM | [1] 24.9 µM | [2] 5.55 µM | [3] 2.81 µM | [4] 11.4 µM | [59] 12.4 µM | [5] 13.5 µM | [6] 3.94 µM | [8] 6.3 µM | [9] 6.5 µM | [47] 10.8 µM | [48] 3.48 µM | [10] 2.16 µM | [11] 6.15 µM | [12] 2.92 µM | [49] 10.2 µM | [13] 14.1 µM | [54] 8.69 µM | [15] 4.16 µM | [17] 6.43 µM | [60] 5.06 µM | [61] 8.05 µM | [18] 6.93 µM | [19] 4.18 µM | [62] 15.6 µM | [20] 16.2 µM | [21] 3.48 µM | [22] 2.63 µM | [23] 13 µM | [24] 5.2 µM | [25] 3.56 µM | [26] 4.86 µM | [28] 3.38 µM | [55] 6.73 µM | [29] 19.8 µM | [30] 15 µM | [31] 7.03 µM | [63] 7.52 µM | [32] 4.81 µM | [56] 3.42 µM | [64] 6.43 µM | [33] 2.6 µM | [51] 4.11 µM | [52] 15.2 µM | [65] 2.66 µM | [34] 8.11 µM | [35] 8.79 µM | [36] 4.71 µM | [37] 8.41 µM | [39] 8.91 µM | [41] 4.26 µM | [42] 26.2 µM | [43] 5.26 µM | [44] 5.94 µM | [66] 4.76 µM | [46] 5.04 µM | [53] 6.01 µM
2.81 µM: [45]
